Source: patent publication US11851440B2, “Modulators of eukaryotic initiation factor 2B, compositions and methods” (Denali Therapeutics Inc., priority 2017, dated 2023)

System: ISR pathway (ATF4 translation)
Experiment: ATF4 Nano Luciferase reporter integrated stress response (ISR) assay in H4 ATF4-NLuc cells
Conditions: Homo sapiens, H4 ATF4-NLuc (clone 17) cells; compound 30 minutes, then 50 um sodium arsenite for 6 hours; luminescence readout

IC50 | SMILES
17.1 nM | O=C(COc1ccc(Cl)c(F)c1)NC12CC(c3nnc(C4CN(CC(F)(F)F)C4)o3)(C1)C2 [Example 15, 2-(4-chloro-3-fluoro-phenoxy)-N-[1-[5-[1-(2,2,2-trifluoroethyl)azetidin-3-yl]-1,3,4-oxadiazol-2-yl]-3-bicyclo[1.1.1]pentanyl]acetamide]
13.7 nM | O=C(COc1ccc(Cl)c(F)c1)NC12CC(c3nnc([C@H]4C[C@@H](OC(F)F)C4)o3)(C1)C2 [Example 51]

Same assay, conditions: Homo sapiens, read-out: Activity (IC50), H4 ATF4-NLuc (clone 17) cells; compound 30 minutes, then 50 um sodium arsenite for 6 hours; luminescence readout

SMILES | IC50
O=C(COc1ccc(Cl)c(F)c1)NC12CC(c3nnc(CC4CC4)o3)(C1)C2 [Example 11, 2-(4-chloro-3-fluoro-phenoxy)-N-[1-[5-(cyclopropylmethyl)-1,3,4-oxadiazol-2-yl]-3-bicyclo[1.1.1]pentanyl]acetamide] | < 1000 nM
O=C(CO[C@H]1C[C@@H](OC(F)(F)F)C1)NC12CC(c3nnc(-c4ccc(Cl)c(F)c4)o3)(C1)C2 [Example 12, N-[3-[5-(4-chloro-3-fluoro-phenyl)-1,3,4-oxadiazol-2-yl]-1-bicyclo[1.1.1]pentanyl]-2-[cis-3-(trifluoromethoxy)cyclobutoxy]acetamide] | < 1000 nM
CC(C)(C)OC(=O)N1CC(c2nnc(C34CC(NC(=O)COc5ccc(Cl)c(F)c5)(C3)C4)o2)C1 [Example 13, tert-Butyl 3-[5-[3-[[2-(4-chloro-3-fluoro-phenoxy)acetyl]amino]-1-bicyclo[1.1.1]pentanyl]-1,3,4-oxadiazol-2-yl]azetidine-1-carboxylate] | < 1000 nM
CC(C)(C)OC(=O)N1CCC(c2nnc(C34CC(NC(=O)COc5ccc(Cl)c(F)c5)(C3)C4)o2)C1 (centres unmarked) [Example 14, tert-butyl 3-[5-[3-[[2-(4-chloro-3-fluoro-phenoxy)acetyl]amino]-1-bicyclo[1.1.1]pentanyl]-1,3,4-oxadiazol-2-yl]pyrrolidine-1-carboxylate] | < 1000 nM
O=C(COc1ccc(Cl)c(F)c1)NC12CC(c3nnc(C4CCN(CC(F)(F)F)C4)o3)(C1)C2 (centres unmarked) [Example 16, 2-(4-chloro-3-fluoro-phenoxy)-N-[1-[5-[1-(2,2,2-trifluoroethyl)pyrrolidin-3-yl]-1,3,4-oxadiazol-2-yl]-3-bicyclo[1.1.1]pentanyl]acetamide] | < 1000 nM
O=C(COc1ccc(Cl)c(F)c1)NC12CC(c3nnc(C4CC4(F)F)o3)(C1)C2 (centres unmarked) [Example 18, 2-(4-chloro-3-fluoro-phenoxy)-N-[3-[5-(2,2-difluorocyclopropyl)-1,3,4-oxadiazol-2-yl]-1-bicyclo[1.1.1]pentanyl]acetamide] | < 1000 nM
O=C(COc1ccc(Cl)c(F)c1)NC12CC(C3=NOC(C4CCCC4)C3)(C1)C2 (centres unmarked) [Example 21, 2-(4-chloro-3-fluorophenoxy)-N-(3-(5-cyclopentyl-4,5-dihydroisoxazol-3-yl)bicyclo[1.1.1]pentan-1-yl)acetamide] | < 1000 nM
O=C(COc1ccc(Cl)c(F)c1)NC12CC(c3cc(C4CCC4)on3)(C1)C2 [Example 24, 2-(4-chloro-3-fluorophenoxy)-N-(3-(5-cyclobutylisoxazol-3-yl)bicyclo[1.1.1]pentan-1-yl)acetamide] | < 1000 nM
O=C(COc1ccc(Cl)c(F)c1)NC12CC(c3nc(C4CCC4)co3)(C1)C2 [Example 27, 2-(4-chloro-3-fluoro-phenoxy)-N-[1-(4-cyclobutyloxazol-2-yl)-3-bicyclo[1.1.1]pentanyl]acetamide] | < 1000 nM
O=C(COC1CCC1)NC12CC(c3cn(-c4ccc(Cl)cc4)nn3)(C1)C2 [Example 28, N-[1-[1-(4-Chlorophenyl)triazol-4-yl]-3-bicyclo[1.1.1]pentanyl]-2-(cyclobutoxy)acetamide] | < 1000 nM
N#CC1CC(c2nnc(C34CC(NC(=O)COc5ccc(Cl)c(F)c5)(C3)C4)o2)C1 (centres unmarked) [Example 29, 2-(4-chloro-3-fluoro-phenoxy)-N-[1-[5-(3-cyanocyclobutyl)-1,3,4-oxadiazol-2-yl]-3-bicyclo[1.1.1]pentanyl]acetamide] | < 1000 nM
C#CC12CC(NC(=O)COc3ccc(Cl)c(F)c3)(C1)C2 [Example 31, 2-(4-chloro-3-fluorophenoxy)-N-(3-ethynylbicyclo[1.1.1]pentan-1-yl)acetamide] | 1000 to 10000 nM
N#C[C@H]1C[C@H](n2cc(C34CC(NC(=O)COc5ccc(Cl)c(F)c5)(C3)C4)nn2)C1 [Example 34, 2-(4-chloro-3-fluorophenoxy)-N-(3-(1-((trans)-3-cyanocyclobutyl)-1H-1,2,3-triazol-4-yl)bicyclo[1.1.1]pentan-1-yl)acetamide] | < 1000 nM
O=C(COC1CCC1)NC12CC(c3nnc(COc4ccc(Cl)c(F)c4)[nH]3)(C1)C2 [Example 37, N-(3-(5-((4-chloro-3-fluorophenoxy)methyl)-4H-1,2,4-triazol-3-yl)bicyclo[1.1.1]pentan-1-yl)-2-cyclobutoxyacetamide] | 1000 to 10000 nM
O=C(COc1ccc(Cl)c(F)c1)NC12CC(c3nnc(CC4CCC4)o3)(C1)C2 [Example 38, 2-(4-chloro-3-fluoro-phenoxy)-N-[1-[5-(cyclobutylmethyl)-1,3,4-oxadiazol-2-yl]-3-bicyclo[1.1.1]pentanyl]acetamide] | < 1000 nM
Cc1nnc(C23CC(NC(=O)COc4ccc(Cl)c(F)c4)(C2)C3)o1 [Example 40, 2-(4-chloro-3-fluoro-phenoxy)-N-[1-(5-methyl-1,3,4-oxadiazol-2-yl)-3-bicyclo[1.1.1]pentanyl]acetamide] | < 1000 nM
O=C(CO[C@H]1C[C@@H](OC(F)(F)F)C1)NC12CC(c3nnc(COc4ccc(Cl)c(F)c4)o3)(C1)C2 [Example 41, N-[1-[5-[(4-chloro-3-fluoro-phenoxy)methyl]-1,3,4-oxadiazol-2-yl]-3-bicyclo[1.1.1]pentanyl]-2-cis-[3-(trifluoromethoxy)cyclobutoxy]acetamide] | < 1000 nM
O=C(COC1CCC1)NC12CC(c3nnc(-c4ccc(Cl)c(F)c4)o3)(C1)C2 [Example 42, N-[1-[5-(4-chloro-3-fluoro-phenyl)-1,3,4-oxadiazol-2-yl]-3-bicyclo[1.1.1]pentanyl]-2-(cyclobutoxy)acetamide] | 1000 to 10000 nM
O=C(COc1ccc(Cl)c(F)c1)NC12CC(c3nnc([C@H]4C[C@H](C(F)(F)F)C4)o3)(C1)C2 [Example 44, 2-(4-chloro-3-fluoro-phenoxy)-N-[1-[5-trans-[3-(trifluoromethyl)cyclobutyl]-1,3,4-oxadiazol-2-yl]-3-bicyclo[1.1.1]pentanyl]acetamide] | < 1000 nM
O=C(COc1ccc(Cl)c(F)c1)NC12CC(c3nnc(COC(F)(F)F)o3)(C1)C2 [Example 45, 2-(4-chloro-3-fluoro-phenoxy)-N-[1-[5-(trifluoromethoxymethyl)-1,3,4-oxadiazol-2-yl]-3-bicyclo[1.1.1]pentanyl]acetamide] | < 1000 nM
O=C(COC1CCC1)NC12CC(c3nnc(COc4ccc(Cl)c(F)c4)o3)(C1)C2 [Example 46] | < 1000 nM
O=C(COc1ccc(Cl)c(F)c1)NC12CC(n3cnc(CC4CCC4)c3)(C1)C2 [Example 48] | < 1000 nM
O=C(CO[C@H]1C[C@@H](OC(F)(F)F)C1)NC12CC(c3nnc([C@H]4C[C@@H](OC(F)(F)F)C4)o3)(C1)C2 [Example 50] | < 1000 nM
O=C(COc1ccc(Cl)c(F)c1)NC12CC(c3nnc([C@H]4C[C@@H](OC(F)F)C4)o3)(C1)C2 [Example 51] | < 1000 nM

Results, then the compound that gave them:

IC50 | SMILES
< 1000 nM | O=C(COc1ccc(Cl)c(F)c1)NC12CC(c3nnc(C4CN(CC(F)(F)F)C4)o3)(C1)C2 [Example 15, 2-(4-chloro-3-fluoro-phenoxy)-N-[1-[5-[1-(2,2,2-trifluoroethyl)azetidin-3-yl]-1,3,4-oxadiazol-2-yl]-3-bicyclo[1.1.1]pentanyl]acetamide]
< 1000 nM | O=C(COc1ccc(Cl)c(F)c1)NC12CC(c3nnc(C4CC4)o3)(C1)C2 [Example 17, 2-(4-chloro-3-fluoro-phenoxy)-N-[3-(5-cyclopropyl-1,3,4-oxadiazol-2-yl)-1-bicyclo[1.1.1]pentanyl]acetamide]
< 1000 nM | O=C(COc1ccc(Cl)c(F)c1)NC12CC(c3cc(C4CCCC4)on3)(C1)C2 [Example 22, 2-(4-chloro-3-fluorophenoxy)-N-(3-(5-cyclopentylisoxazol-3-yl)bicyclo[1.1.1]pentan-1-yl)acetamide]
< 1000 nM | O=C(COc1ccc(Cl)c(F)c1)NC12CC(C3=NOC(C4CCC4)C3)(C1)C2 (centres unmarked) [Example 23, 2-(4-chloro-3-fluorophenoxy)-N-(3-(5-cyclobutyl-4,5-dihydroisoxazol-3-yl)bicyclo[1.1.1]pentan-1-yl)acetamide]
< 1000 nM | O=C(COc1ccc(Cl)c(F)c1)NC12CC(c3nnc(C4CCC4)o3)(C1)C2 [Example 25, 2-(4-chloro-3-fluoro-phenoxy)-N-[1-(5-cyclobutyl-1,3,4-oxadiazol-2-yl)-3-bicyclo[1.1.1]pentanyl]acetamide]
< 1000 nM | O=C(COc1ccc(Cl)c(F)c1)NC12CC(c3cc(C4CCC4)no3)(C1)C2 [Example 26, 2-(4-Chloro-3-fluorophenoxy)-N-(3-(3-cyclobutylisoxazol-5-yl)bicyclo[1.1.1]pentan-1-yl)acetamide]
< 1000 nM | O=C(COc1ccc(Cl)c(F)c1)NC12CC(c3c[nH]nn3)(C1)C2 [Example 32, N-(3-(1H-1,2,3-triazol-4-yl)bicyclo[1.1.1]pentan-1-yl)-2-(4-chloro-3-fluorophenoxy)acetamide]
< 1000 nM | N#C[C@H]1C[C@H](n2ncc(C34CC(NC(=O)COc5ccc(Cl)c(F)c5)(C3)C4)n2)C1 [Example 33, 2-(4-chloro-3-fluorophenoxy)-N-(3-(2-((trans)-3-cyanocyclobutyl)-2H-1,2,3-triazol-4-yl)bicyclo[1.1.1]pentan-1-yl)acetamide]
< 1000 nM | O=C(COc1ccc(Cl)c(F)c1)NC12CC(n3cnc(C4CCC4)c3)(C1)C2 [Example 39, 2-(4-chloro-3-fluoro-phenoxy)-N-[3-(4-cyclobutylimidazol-1-yl)-1-bicyclo[1.1.1]pentanyl]acetamide]
< 1000 nM | O=C(COc1ccc(Cl)c(F)c1)NC12CC(c3nnc([C@H]4C[C@@H](C(F)(F)F)C4)o3)(C1)C2 [Example 43, 2-(4-chloro-3-fluorophenoxy)-N-(3-(5-((cis)-3-(trifluoromethyl)cyclobutyl)-1,3,4-oxadiazol-2-yl)bicyclo[1.1.1]pentan-1-yl)acetamide]
< 1000 nM | O=C(COc1ccc(Cl)c(F)c1)NC12CC(c3ncc(C4CCC4)o3)(C1)C2 [Example 47]
< 1000 nM | O=C(CO[C@H]1C[C@@H](OC(F)(F)F)C1)NC12CC(n3cnc(C4CC(OC(F)(F)F)C4)c3)(C1)C2 (some centres unmarked) [Example 52]
